US20180201592A1, “2-AMINO-1,3,4-THIADIAZINE AND 2-AMINO-1,3,4-OXADIAZINE BASED ANTIFUNGAL AGENTS” (F2G Limited, priority 2015, published 2018)

Experiments:
Conditions in all cases: banded MIC grade
Aspergillus fumigatus = assay: Minimum inhibitory concentration, YAG medium; format: cell-based
Procedure, shortened: (§1)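 Broth microdilution in YAG medium; inoculum 1-2×10^4 cfu/mL; compound 50-0.05 mg/L in doubling steps, from DMSO stock. 24 h, 35° C. Read OD 485 nm; MIC = lowest conc. inhibiting growth >70% vs no-drug control, in mg/L.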

A. fumigatus 210 [1] = assay: Minimum inhibitory concentration, YAG medium; format: cell-based, Aspergillus fumigatus
Procedure, shortened: as §1

A. terreus 49 [2] = assay: Minimum inhibitory concentration, YAG medium; format: cell-based, Aspergillus terreus
Procedure, shortened: (§2)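 MIC values (mg/L) were derived from well optical density at 485 nm. Plates with Aspergillus spores and doubling aqueous dilutions of compound (5 mg/mL DMSO stock) had been incubated at 35° C for 24 hrs.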

Aspergillus flavus = assay: Minimum inhibitory concentration, YAG medium; format: cell-based
Procedure, shortened: as §2

Aspergillus niger = assay: Minimum inhibitory concentration, YAG medium; format: cell-based
Procedure, shortened: as §2

Aspergillus terreus = assay: Minimum inhibitory concentration, YAG medium; format: cell-based
Procedure, shortened: as §2

A. flavus = assay: Minimum inhibitory concentration, RPMI medium; format: cell-based
Procedure, shortened: (§3)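 Thawed 5 mg/mL DMSO stocks are vortexed, diluted into sterile water and serially halved in water. The MIC test is then run in RPMI 1640 at 35° C for 24-48 hrs. Wells are read at OD 485 nm.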

A. niger = assay: Minimum inhibitory concentration, RPMI medium; format: cell-based
Procedure, shortened: as §3

A. terreus 49 [3] = assay: Minimum inhibitory concentration, RPMI medium; format: cell-based
Procedure, shortened: as §3

A. terreus = assay: Minimum inhibitory concentration, RPMI medium; format: cell-based
Procedure, shortened: as §3

C. albicans = assay: Minimum inhibitory concentration, RPMI medium; format: cell-based
Procedure, shortened: as §3

C. glabrata = assay: Minimum inhibitory concentration, RPMI medium; format: cell-based
Procedure, shortened: as §3

C. krusei = assay: Minimum inhibitory concentration, RPMI medium; format: cell-based
Procedure, shortened: as §3

C. parapsilosis = assay: Minimum inhibitory concentration, RPMI medium; format: cell-based
Procedure, shortened: as §3

C. tropicalis = assay: Minimum inhibitory concentration, RPMI medium; format: cell-based
Procedure, shortened: as §3

A. fumigatus 210 [4] = assay: Minimum inhibitory concentration, RPMI medium; format: cell-based
Procedure, shortened: (§4)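 Compound doubling dilutions were prepared from 5 mg/mL DMSO stock; fungus was diluted in RPMI 1640 with 2% glucose and 0.135 M MOPS (pH 7.0), giving inocula of 1-2×10^4 cfu/mL and drug range 50-0.05 mg/L. Plates ran 24-48 hrs at 35° C; MIC is the lowest concentration giving >80% growth inhibition by OD485 versus drug-free control.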

A. fumigatus = assay: Minimum inhibitory concentration, RPMI medium; format: cell-based
Procedure, shortened: as §4

SMILES	MIC grade, A. FUMIGATUS, YAG media (Aspergillus fumigatus)	MIC grade, A. FUMIGATUS 210, YAG media (A. fumigatus 210 [1])	MIC grade, A. TERREUS 49, YAG media (A. terreus 49 [2])	MIC grade, A. FLAVUS, YAG media (Aspergillus flavus)	MIC grade, A. NIGER, YAG media (Aspergillus niger)	MIC grade, A. TERREUS, YAG media (Aspergillus terreus)	MIC grade, A. FLAVUS, RPMI media (A. flavus)	MIC grade, A. NIGER, RPMI media (A. niger)	MIC grade, A. TERREUS 49, RPMI media (A. terreus 49 [3])	MIC grade, A. TERREUS, RPMI media (A. terreus)	MIC grade, C. ALBICANS, RPMI media (C. albicans)	MIC grade, C. GLABRATA, RPMI media (C. glabrata)	MIC grade, C. KRUSEI, RPMI media (C. krusei)	MIC grade, C. PARAPSILOSIS, RPMI media (C. parapsilosis)	MIC grade, C. TROPICALIS, RPMI media (C. tropicalis)	MIC grade, A. FUMIGATUS 210, RPMI media (A. fumigatus 210 [4])	MIC grade, A. FUMIGATUS, RPMI media (A. fumigatus)
NC1=NN=C(CCCCOCc2ccc(Cl)cc2Cl)CS1	2 (2: 1-5 mg/L)	2 (2: 1-5 mg/L)	2 (2: 1-5 mg/L)	2 (2: 1-5 mg/L)	3 (3: 0.2-1 mg/L)	2 (2: 1-5 mg/L)	2 (2: 5-20 mg/L)	1 (1: ≥20 mg/L)	2 (2: 5-20 mg/L)	2 (2: 5-20 mg/L)	2 (2: 5-20 mg/L)	1 (1: ≥20 mg/L)	2 (2: 5-20 mg/L)	2 (2: 5-20 mg/L)	2 (2: 5-20 mg/L)	1 (1: ≥20 mg/L)	1 (1: ≥20 mg/L)
NC1=NN=C(CCCCOCc2ccc(F)cc2F)CS1	4 (4: <0.2 mg/L)	4 (4: <0.2 mg/L)	4 (4: <0.2 mg/L)	4 (4: <0.2 mg/L)	4 (4: <0.2 mg/L)	4 (4: <0.2 mg/L)	4 (4: <1 mg/L)	4 (4: <1 mg/L)	4 (4: <1 mg/L)	4 (4: <1 mg/L)	4 (4: <1 mg/L)	4 (4: <1 mg/L)	4 (4: <1 mg/L)	4 (4: <1 mg/L)	4 (4: <1 mg/L)	3 (3: 1-5 mg/L)	4 (4: <1 mg/L)
NC1=NN=C(CCCCOCc2cccc(Br)c2)CS1	4 (4: <0.2 mg/L)	4 (4: <0.2 mg/L)	4 (4: <0.2 mg/L)	4 (4: <0.2 mg/L)	4 (4: <0.2 mg/L)	4 (4: <0.2 mg/L)	4 (4: <1 mg/L)	3 (3: 1-5 mg/L)	3 (3: 1-5 mg/L)	3 (3: 1-5 mg/L)	4 (4: <1 mg/L)	3 (3: 1-5 mg/L)	4 (4: <1 mg/L)	4 (4: <1 mg/L)	4 (4: <1 mg/L)	2 (2: 5-20 mg/L)	4 (4: <1 mg/L)
NC1=NN=C(CCCCOCc2cccc(C3CC3)c2)CS1	3 (3: 0.2-1 mg/L)	3 (3: 0.2-1 mg/L)	3 (3: 0.2-1 mg/L)	3 (3: 0.2-1 mg/L)	3 (3: 0.2-1 mg/L)	3 (3: 0.2-1 mg/L)	2 (2: 5-20 mg/L)	2 (2: 5-20 mg/L)	2 (2: 5-20 mg/L)	2 (2: 5-20 mg/L)	4 (4: <1 mg/L)	2 (2: 5-20 mg/L)	4 (4: <1 mg/L)	4 (4: <1 mg/L)	4 (4: <1 mg/L)	2 (2: 5-20 mg/L)	3 (3: 1-5 mg/L)
NC1=NN=C(CCCCOCc2cccc(Oc3ccccc3)c2)CS1	1 (1: ≥5 mg/L)	1 (1: ≥5 mg/L)	1 (1: ≥5 mg/L)	2 (2: 1-5 mg/L)	2 (2: 1-5 mg/L)	1 (1: ≥5 mg/L)	1 (1: ≥20 mg/L)	1 (1: ≥20 mg/L)	1 (1: ≥20 mg/L)	1 (1: ≥20 mg/L)	3 (3: 1-5 mg/L)	1 (1: ≥20 mg/L)	3 (3: 1-5 mg/L)	3 (3: 1-5 mg/L)	3 (3: 1-5 mg/L)	1 (1: ≥20 mg/L)	1 (1: ≥20 mg/L)
NC1=NN=C(CCCCOCc2cc(F)cc(F)c2)CS1	4 (4: <0.2 mg/L)	4 (4: <0.2 mg/L)	4 (4: <0.2 mg/L)	4 (4: <0.2 mg/L)	4 (4: <0.2 mg/L)	4 (4: <0.2 mg/L)	3 (3: 1-5 mg/L)	3 (3: 1-5 mg/L)	3 (3: 1-5 mg/L)	3 (3: 1-5 mg/L)	4 (4: <1 mg/L)	3 (3: 1-5 mg/L)	4 (4: <1 mg/L)	4 (4: <1 mg/L)	4 (4: <1 mg/L)	2 (2: 5-20 mg/L)	4 (4: <1 mg/L)
Cc1cc(COCCCCC2=NN=C(N)SC2)ccc1F	4 (4: <0.2 mg/L)	4 (4: <0.2 mg/L)	4 (4: <0.2 mg/L)	4 (4: <0.2 mg/L)	4 (4: <0.2 mg/L)	4 (4: <0.2 mg/L)	4 (4: <1 mg/L)	3 (3: 1-5 mg/L)	3 (3: 1-5 mg/L)	3 (3: 1-5 mg/L)	4 (4: <1 mg/L)	3 (3: 1-5 mg/L)	4 (4: <1 mg/L)	4 (4: <1 mg/L)	4 (4: <1 mg/L)	2 (2: 5-20 mg/L)	4 (4: <1 mg/L)
NC1=NN=C(CCCCOCc2ccc(F)cc2)CS1	2 (2: 1-5 mg/L)	2 (2: 1-5 mg/L)	2 (2: 1-5 mg/L)	2 (2: 1-5 mg/L)	2 (2: 1-5 mg/L)	2 (2: 1-5 mg/L)	1 (1: ≥20 mg/L)	1 (1: ≥20 mg/L)	1 (1: ≥20 mg/L)	1 (1: ≥20 mg/L)	2 (2: 5-20 mg/L)	2 (2: 5-20 mg/L)	2 (2: 5-20 mg/L)	2 (2: 5-20 mg/L)	2 (2: 5-20 mg/L)	1 (1: ≥20 mg/L)	1 (1: ≥20 mg/L)
COc1ccc(COCCCCC2=NN=C(N)SC2)cc1	2 (2: 1-5 mg/L)	2 (2: 1-5 mg/L)	2 (2: 1-5 mg/L)	2 (2: 1-5 mg/L)	2 (2: 1-5 mg/L)	2 (2: 1-5 mg/L)	1 (1: ≥20 mg/L)	1 (1: ≥20 mg/L)	1 (1: ≥20 mg/L)	1 (1: ≥20 mg/L)	2 (2: 5-20 mg/L)	2 (2: 5-20 mg/L)	2 (2: 5-20 mg/L)	2 (2: 5-20 mg/L)	2 (2: 5-20 mg/L)	1 (1: ≥20 mg/L)	1 (1: ≥20 mg/L)
